# Several values for one entry are separate records, joined by “and”; a condition that tells them apart may be missing. Equal values may be shown once. Read-outs that look alike come from different tables or passages of the source.
# System: L. major lysate proteins
# Assay: Multitargeted bead mixture chemoproteomics, single concentration competition, proteome-wide
# Type: binding
# Conditions: for fold change: vehicle control = 1
compound,measurement,setting,value
"Nc1nc2[nH]cc(CCc3ccc(C(=O)N[C@@H](CCC(=O)O)C(=O)O)cc3)c2c(=O)[nH]1 [PTX, pemetrexed]",fold change relative to vehicle control,,1.01 and 1.04 and 0.91
same,fold change vs vehicle control,,1.03 and 1.04 and 1
same,fold change vs vehicle control,protein CLI00016468.1 KIN[…] PROTEIN-11,0.68
same,fold change vs vehicle control,"protein LINJ.03.0240 RIBOSOMAL PROTEIN L38, PUTATIVE",1.03
same,fold change vs vehicle control,"protein LINJ.11.0780 40S RIBOSOMAL PROTEIN S21, PUTATIVE",0.99
same,fold change,protein LINJ.11.0960 40S RIBOSOMAL PROTEIN S5,1.07
same,fold change vs vehicle control,"protein LINJ.13.0990 […] SUBUNIT 2, PUTATIVE",1.06
same,fold change vs vehicle control,"protein LINJ.15.0330 RIBONUCLEOPROTEIN P18, MIT[…], PUTATIVE",1.08
same,fold change,"protein LINJ.19.0090 FIBRILLARIN, PUTATIVE",0.88
same,fold change,"protein LINJ.21.1790 40S RIBOSOMAL PROTEIN S11, PUTATIVE",1.08
same,fold change relative to vehicle control,"protein LINJ.23.0860, 3-KETOACYL-COA THIOLASE, PUTATIVE",1.16
same,fold change relative to vehicle control,"protein LINJ.24.2300, 60S RIBOSOMAL PROTEIN L12, PUTATIVE",0.96
same,fold change vs vehicle control,"protein LINJ.25.2230 SUCCINYL-COA […] SUBUNIT, PUTATIVE",0.97
same,fold change vs vehicle control,"protein LINJ.26.1630 40S RIBOSOMAL PROTEIN S33, PUTATIVE",0.99
same,fold change vs vehicle control,"protein LINJ.28.1100 RIBOSOMAL PROTEIN S20, PUTATIVE",0.99
same,fold change relative to vehicle control,"protein LINJ.28.1940, R[…] A, 51KDA SUBUNIT, PUTATIVE",0.99
same,fold change,"protein LINJ.28.2280 DYNEIN LIGHT CHAIN LC6, FLAGELLAR OUTER ARM, PUTATIVE",0.87
same,fold change,"protein LINJ.28.2870 PROTEIN PHOSPHATASE 4 CATALYTIC SUBUNIT, PUTATIVE",0.97
same,fold change relative to vehicle control,"protein LINJ.31.1600, CYTOCHROME C OXIDASE VIII (COX VIII), PUTATIVE",0.89
same,fold change relative to vehicle control,"protein LINJ.33.1730, CYCLOPHILIN 4, PUTATIVE",1.47
same,fold change vs vehicle control,"protein LINJ.34.0670 […]-ATP-ASE SUBUNIT 11, PUTATIVE,19S […]",0.91
same,fold change vs vehicle control,"protein LINJ.36.0780 PROTEIN KINASE, PUTATIVE,MITOGEN-ACTIVATED PROTEIN KINASE, PUTATIVE",0.92
same,fold change relative to vehicle control,"protein LINJ.36.3960, BASIC TRANSCRIPTION FACTOR 3A, PUTATIVE",1.33
same,fold change relative to vehicle control,"protein LINJ.36.4080, HY[…], CONSERVED",0.93
same,fold change,protein LINJ.36.4180 HS1VU COMPLEX P[…]-LIKE,0.92
same,fold change vs vehicle control,"protein LINJ.[…] LONG-CHAIN-FATTY-ACID-COA LIGASE, PUTATIVE",0.9
same,fold change,"protein LMJF.01.0570 TRICARBOXYLATE CARRIER, PUTATIVE",0.96
same,fold change relative to vehicle control,"protein LMJF.03.0200, DELTA-1-PYRROLINE-5-CARBOXYLATE DEHYDROGENASE, PUTATIVE",1.03
same,fold change,"protein LMJF.03.0230 LONG CHAIN FATTY ACYL COA SYNTHETASE, PUTATIVE",0.99
same,fold change,"protein LMJF.03.0980 […] 2 ALPHA SUBUNIT, PUTATIVE",0.97
same,fold change vs vehicle control,"protein LMJF.04.0630 HY[…], CONSERVED",0.99
same,fold change vs vehicle control,protein LMJF.04.1230 actin,1
same,fold change,"protein LMJF.05.0100 PHOSPHOPROTEIN PHOSPHATASE, PUTATIVE",0.71
same,fold change,"protein LMJF.05.0280 PROTEIN TYROSINE PHOSPHATASE, PUTATIVE",0.88
same,fold change,protein LMJF.05.0510 ATPASE ALPHA SUBUNIT,1.05
same,fold change,protein LMJF.05.1040 STOMATIN-LIKE PROTEIN,0.94
same,fold change,"protein LMJF.06.0650 […], PUTATIVE",0.89
same,fold change vs vehicle control,protein LMJF.07.0700 TOPOISOMERASE-RELATED FUNCTION PROTEIN-LIKE PROTEIN,0.73
same,fold change,protein LMJF.07.1000 RNA BINDING PROTEIN-LIKE PROTEIN,0.93
same,fold change relative to vehicle control,"protein LMJF.07.1140, PEPTIDE […] REDUCTASE-LIKE",1.13
same,fold change,"protein LMJF.08.0510 RIBOSE-PHOSPHATE PYROPHOSPHOKINASE, PUTATIVE",0.89
same,fold change vs vehicle control,protein LMJF.08.0550 T[…]-LIKE PROTEIN,0.98
same,fold change relative to vehicle control,"protein LMJF.08.1030, cathepsin L-like protease",1.04
same,fold change vs vehicle control,"protein LMJF.08.1100 HY[…], CONSERVED",0.92
same,fold change vs vehicle control,"protein LMJF.09.1010 HY[…], CONSERVED",0.89
same,fold change relative to vehicle control,"protein LMJF.09.1120, MIT[…] BINDING PROTEIN 2,MRP2, GBP25",1
same,fold change vs vehicle control,"protein LMJF.09.1260 HY[…], CONSERVED",0.97
same,fold change,"protein LMJF.10.0210 NUCLEOLAR PROTEIN, PUTATIVE",0.99
same,fold change vs vehicle control,"protein LMJF.10.0310 PROTEIN TRANSPORT PROTEIN SEC23, PUTATIVE",1.04
same,fold change,"protein LMJF.11.0590 3-METHYLCROTONOYL-COA C[…] SUBUNIT, PUTATIVE",0.95
same,fold change relative to vehicle control,"protein LMJF.11.0630, AMINOPEPTIDASE, PUTATIVE,METALLO-PEPTIDASE, CLAN MF, FAMILY M17",1.06
same,fold change vs vehicle control,"protein LMJF.11.1050 PRETRA[…], ALPHA SUBUNIT, PUTATIVE,SEC61-LIKE (PRETRA[…]) PROTEIN, PUTATIVE",0.96
same,fold change,"protein LMJF.11.1160 PROTEIN TRANSPORT PROTEIN SEC31, PUTATIVE",0.76
same,fold change,"protein LMJF.12.0030 […]-1 SUBUNIT, PUTATIVE",0.94
same,fold change vs vehicle control,"protein LMJF.12.0210 […] SUBUNITTCC1L8 3, PUTATIVE",0.96
same,fold change relative to vehicle control,"protein LMJF.12.0530, GLUCOSE-6-PHOSPHATE ISOMERASE",1.26
same,fold change,protein LMJF.12.0630 ALANINE AMINOTRANSFERASE,0.86
same,fold change vs vehicle control,"protein LMJF.13.1230 40S RIBOSOMAL PROTEIN S4, PUTATIVE",1.13
same,fold change vs vehicle control,"protein LMJF.14.0310 […] 3 SUBUNIT, PUTATIVE",1.03
same,fold change,"protein LMJF.14.0660 FATTY ACID ELONGASE, PUTATIVE",0.92
same,fold change,"protein LMJF.14.0670 FATTY ACID ELONGASE, PUTATIVE",0.87
same,fold change vs vehicle control,"protein LMJF.14.0680 FATTY ACID ELONGASE, PUTATIVE",1.08
same,fold change,protein LMJF.14.0990 ADP/ATP MIT[…]-LIKE PROTEIN,1.14
same,fold change vs vehicle control,protein LMJF.14.1160 ENOLASE,1.01
same,fold change,"protein LMJF.14.1440 HY[…], CONSERVED (cytoskeleton associated protein, putative)",0.74

# From paper PMC6199744, “Development of Chemical Proteomics for the Folateome and Analysis of the Kinetoplastid Folateome” (ACS Infectious Diseases, 2018)
